Converted amounts (≈) assume the structure as drawn.
What was measured:
[1] = biological target: T1, 2,3-epoxysqualene-lanosterol-cyclase (Rattus norvegicus, UniProt P48450); assay: In-vivo activity in the rat after oral administration: 2,3-epoxysqualene level in the liver
T1 construct: Measuring the in-vivo Activity in the Rat after Oral Administration; from tissue; host or cells: living rat; 2,3-epoxysqualene measured in the liver
T1 sequence (P48450 1-733): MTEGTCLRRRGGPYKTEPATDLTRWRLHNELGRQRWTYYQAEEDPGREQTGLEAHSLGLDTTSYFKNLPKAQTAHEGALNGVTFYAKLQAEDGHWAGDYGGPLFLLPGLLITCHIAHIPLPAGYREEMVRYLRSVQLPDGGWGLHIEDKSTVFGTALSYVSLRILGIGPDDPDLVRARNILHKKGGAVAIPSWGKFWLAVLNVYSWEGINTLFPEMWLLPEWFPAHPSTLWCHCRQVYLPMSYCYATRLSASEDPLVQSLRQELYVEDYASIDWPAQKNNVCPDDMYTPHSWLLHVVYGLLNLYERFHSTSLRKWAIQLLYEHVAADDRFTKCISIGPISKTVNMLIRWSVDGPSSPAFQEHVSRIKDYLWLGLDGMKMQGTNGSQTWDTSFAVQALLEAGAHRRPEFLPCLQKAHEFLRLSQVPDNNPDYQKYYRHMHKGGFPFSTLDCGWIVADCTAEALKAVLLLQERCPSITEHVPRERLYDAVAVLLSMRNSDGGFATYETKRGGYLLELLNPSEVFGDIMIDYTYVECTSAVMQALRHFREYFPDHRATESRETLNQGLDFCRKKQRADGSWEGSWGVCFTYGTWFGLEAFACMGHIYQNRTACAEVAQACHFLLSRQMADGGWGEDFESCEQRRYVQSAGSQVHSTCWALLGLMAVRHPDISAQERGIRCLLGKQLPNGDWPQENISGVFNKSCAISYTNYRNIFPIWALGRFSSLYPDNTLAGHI
Protocol: II. Measuring the in-vivo Activity in the Rat after Oral Administration
Inhibiting the enzyme 2,3-epoxysqualene-lanosterol-cyclase causes an increase in the 2,3-epoxisqualene levels in the liver and plasma. The quantity of 2,3-epoxysqualene formed therefore serves as a direct measurement of the potency on the animal as a whole. The amounts were determined using the method described in J. Lipid. Res. 38, 564-575, [1997] at t=3 or 8 hours after administration of the substance in concentrations of c=0.01, 0.03, 0.1, 0.3 and 1.0 mg/kg. Table 3 which follows gives the results obtained for the abovementioned substances A, B, C, E, G, H, O and R by way of example.
In the control animals there were no measurable 2,3-epoxisqualene levels under these conditions.

[2] = tested on: 14C-acetate incorporation into the steroids which can be precipitated with digitonin (cholesterol biosynthesis); assay: Inhibition of 14C-acetate incorporation into the steroids which can be precipitated with digitonin; format: cell-based; settings: for IC50: 14C-acetate incorporation
Source text: I. Measuring the Inhibition of ^14C-acetate incorporation into the steroids which can be precipitated with digitonin: The inhibitory effect was investigated using the method described in J. Lipid. Res. 37, 148-157 [1996] at test concentrations of 10^−8 and 10^−9 mol/l.

Pen. notatum CBS 19746 = assay: Fungistatic activity, series dilution test; format: cell-based; settings: Sabouraud broth, 2 to 4 days at 26° C.
Protocol: (§1) V. Determining the Fungistatic Activity
(§2) The fungistatic activity was determined by the series dilution test (microtitre system). Sabouraud broth was used as the nutrient medium. The inoculum amounted to about 10^4 to 10^5 CFU/ml (CFU=colony-forming units); the incubation period was 2 to 4 days at 26° C.
(§3) The lowest concentration which allows no visible growth (minimum inhibitory concentration MIC) was determined.
(§4) The abovementioned compounds B, E, G, I, K, L, N, Q and R were tested. The MIC is given in μg/ml.

Rhod. rubra 49 = assay: Fungistatic activity, series dilution test; format: cell-based; settings: Sabouraud broth, 2 to 4 days at 26° C.
Protocol: as §1, §2, §3, §4

[3] = tested on: Cand. albicans ATCC 10231; assay: Fungistatic activity, series dilution test; format: cell-based; settings: Sabouraud broth, 2 to 4 days at 26° C.
Protocol: as §1, §2, §3, §4

Asp. niger ATCC 16404 = assay: Fungistatic activity, series dilution test; format: cell-based; settings: Sabouraud broth, 2 to 4 days at 26° C.
Protocol: as §1, §2, §3, §4

[4] = tested on: Sacch. carisbergensis ATCC 9080; assay: Fungistatic activity, series dilution test; format: cell-based; settings: Sabouraud broth, 2 to 4 days at 26° C.
Protocol: as §1, §2, §3, §4

[5] = tested on: Trich. mentagrophytes ATCC 9129; assay: Fungistatic activity, series dilution test; format: cell-based; settings: Sabouraud broth, 2 to 4 days at 26° C.
Protocol: as §1, §2, §3, §4

[6] = Lipid reduction in the normolipaemic golden hamster; format: in vivo; settings: compared with control group
Protocol: III. Lipid Reduction in the Normolipaemic Golden Hamster This was determined using the method described in J. Lipid. Res. 38, 564-575, (1997). At the end of the experiment the total cholesterol, β-lipoprotein-cholesterol and HDL-cholesterol were determined and compared with the values of a control group which were fed without any test substance. The lipid-lowering activity of the abovementioned compounds E, G and I was tested.

[7] = 0.03 mg/kg oral, 3 h after administration
[8] = 0.03 mg/kg oral, 8 h after administration
[9] = 0.1 mg/kg oral, 3 h after administration
[10] = 0.1 mg/kg oral, 8 h after administration
[11] = 0.3 mg/kg oral, 3 h after administration
[12] = 0.3 mg/kg oral, 8 h after administration
[13] = 0.01 mg/kg oral, 3 h after administration
[14] = 0.01 mg/kg oral, 8 h after administration

Compound	2,3-epoxysqualene concentration in the liver (rat) [1, 7] [µg/g]	2,3-epoxysqualene concentration in the liver (rat) [1, 8] [µg/g]	2,3-epoxysqualene concentration in the liver (rat) [1, 9] [µg/g]	2,3-epoxysqualene concentration in the liver (rat) [1, 10] [µg/g]	2,3-epoxysqualene concentration in the liver (rat) [1, 11] [µg/g]	2,3-epoxysqualene concentration in the liver (rat) [1, 12] [µg/g]	percentage inhibition of 14C-acetate incorporation ([2]; test concentration 10^−8 mol/l) [%]	percentage inhibition of 14C-acetate incorporation ([2]; test concentration 10^−9 mol/l) [%]	MIC Pen. (Pen. notatum CBS 19746) [µg/mL]	MIC Rhod. (Rhod. rubra 49) [µg/mL]	MIC Cand. [3] [µg/mL]	MIC Asp. (Asp. niger ATCC 16404) [µg/mL]	MIC Sacc. [4] [µg/mL]	MIC Trich. [5] [µg/mL]	2,3-epoxysqualene concentration in the liver (rat) [1, 13] [µg/g]	2,3-epoxysqualene concentration in the liver (rat) [1, 14] [µg/g]	IC50 [2] [nM]	also measured
CN(C(=O)Oc1ccc(Cl)cc1)[C@H]1CC[C@H](c2ccc(CN3CCCCC3)cc2)CC1.Cl [I, trans-O-(4-chlorophenyl)-N-methyl-N-4-[4-(piperidinomethyl)phenyl]cyclohexylcarbamate-hydrochloride]	–	–	–	–	–	–	−83	−43	64	64	64	256	64	8	–	–	–	HDL-cholesterol ([6]; dose 0.46 mg/kg/day): −3.3%; Total cholesterol ([6]; dose 0.46 mg/kg/day): −16.1%; β-Lipoprotein-cholesterol ([6]; dose 0.46 mg/kg/day): −26.2%; HDL-cholesterol ([6]; dose 1.34 mg/kg/day): −5.0%; Total cholesterol ([6]; dose 1.34 mg/kg/day): −20.2%; β-Lipoprotein-cholesterol ([6]; dose 1.34 mg/kg/day): −33.7%; HDL-cholesterol ([6]; dose 4.89 mg/kg/day): −16.2%; Total cholesterol ([6]; dose 4.89 mg/kg/day): −25.7%; β-Lipoprotein-cholesterol ([6]; dose 4.89 mg/kg/day): −36.1%
C#CCN(C)Cc1ccc([C@H]2CC[C@H](N(C)C(=O)Oc3ccc(Cl)cc3)CC2)cc1 [N, trans-O-(4-chlorophenyl)-N-methyl-N-4-[4-(N-methyl-N-propargylaminomethyl)phenyl]cyclohexylcarbamate]	–	–	–	–	–	–	−90	−75	8 (≈ 18.8 µM)	16 (≈ 37.6 µM)	8 (≈ 18.8 µM)	>512	64 (≈ 151 µM)	8 (≈ 18.8 µM)	–	–	–	–
Cc1ccc(OC(=S)N(C)[C@H]2CC[C@H](c3ccc(CN4CCCCC4)cc3)CC2)cc1.Cl [Q, trans-N-Methyl-O-(4-methylphenyl)-N-4-[4-(piperidinomethyl)phenyl]cyclohexylthiocarbamate-hydrochloride]	–	–	–	–	–	–	−79	−51	64	8	16	128	32	2	–	–	–	–
CN(C)Cc1ccc([C@H]2CC[C@H](N(C)C(=O)Oc3ccc(F)cc3)CC2)cc1.Cl [R, trans-N-4-[4-(dimethylaminomethyl)phenyl]cyclohexyl-O-(4-fluorophenyl)-N-methylcarbamate-hydrochloride]	38.2	67.2	53.8	152.9	79.7	191.0	−86	−63	16	16	64	16	512	2	5.1	25.6	0.5	2,3-epoxysqualene concentration in the liver (rat) ([1]; 1.0 mg/kg oral, 3 h after administration): 106.2 µg/g; 2,3-epoxysqualene concentration in the liver (rat) ([1]; 1.0 mg/kg oral, 8 h after administration): 340.0 µg/g; HDL-cholesterol ([6]; dose 1.73 mg/kg/day): −19.7%; Total cholesterol ([6]; dose 1.73 mg/kg/day): −16.5%; β-Lipoprotein-cholesterol ([6]; dose 1.73 mg/kg/day): −14.3%; HDL-cholesterol ([6]; dose 6.37 mg/kg/day): −20.0%; Total cholesterol ([6]; dose 6.37 mg/kg/day): −27.8%; β-Lipoprotein-cholesterol ([6]; dose 6.37 mg/kg/day): −34.3%

Continued, in another order:

2,3-epoxysqualene concentration in the liver (rat) [1, 7] [µg/g]	2,3-epoxysqualene concentration in the liver (rat) [1, 8] [µg/g]	2,3-epoxysqualene concentration in the liver (rat) [1, 9] [µg/g]	2,3-epoxysqualene concentration in the liver (rat) [1, 10] [µg/g]	2,3-epoxysqualene concentration in the liver (rat) [1, 11] [µg/g]	2,3-epoxysqualene concentration in the liver (rat) [1, 12] [µg/g]	Compound	percentage inhibition of 14C-acetate incorporation ([2]; test concentration 10^−8 mol/l) [%]	percentage inhibition of 14C-acetate incorporation ([2]; test concentration 10^−9 mol/l) [%]	MIC Pen. (Pen. notatum CBS 19746) [µg/mL]	MIC Rhod. (Rhod. rubra 49) [µg/mL]	MIC Cand. [3] [µg/mL]	MIC Asp. (Asp. niger ATCC 16404) [µg/mL]	MIC Sacc. [4] [µg/mL]	MIC Trich. [5] [µg/mL]	2,3-epoxysqualene concentration in the liver (rat) [1, 13] [µg/g]	2,3-epoxysqualene concentration in the liver (rat) [1, 14] [µg/g]	IC50 [2] [nM]	also measured
24.5	57.1	96.0	150.9	98.5	234.5	CN(C)Cc1ccc([C@H]2CC[C@H](N(C)C(=S)SCc3cccc(F)c3)CC2)cc1.Cl [B, trans-S-(3-fluorobenzyl)-N-4-[4-(dimethylaminomethyl)-phenyl]cyclohexyl-N-methyldithiocarbamate-hydrochloride]	−85	−59	2	2	2	2	8	1	–	–	–	–
12.8	42.3	66.2	115.3	57.5	225.5	CN(C)Cc1ccc([C@H]2CC[C@H](N(C)C(=S)Oc3ccc(Cl)cc3)CC2)cc1.Cl [G, trans-O-(4-chlorophenyl)-N-4-[4-(dimethylaminomethyl)-phenyl]cyclohexyl-N-methylthiocarbamate-hydrochloride]	−85	−43	1	8	4	4	32	1	5.2	30.1	0.4	HDL-cholesterol ([6]; dose 0.5 mg/kg/day): −21.1%; Total cholesterol ([6]; dose 0.5 mg/kg/day): −27.7%; β-Lipoprotein-cholesterol ([6]; dose 0.5 mg/kg/day): −40.2%; HDL-cholesterol ([6]; dose 1.5 mg/kg/day): −26.5%; Total cholesterol ([6]; dose 1.5 mg/kg/day): −31.1%; β-Lipoprotein-cholesterol ([6]; dose 1.5 mg/kg/day): −42.2%; HDL-cholesterol ([6]; dose 4.9 mg/kg/day): −24.3%; Total cholesterol ([6]; dose 4.9 mg/kg/day): −26.5%; β-Lipoprotein-cholesterol ([6]; dose 4.9 mg/kg/day): −33.2%

Source: patent publication US20020019536A1, “NEW URETHANES, THIO AND DITHIO ANALOGUES AND THEIR USE AS INHIBITORS OF CHOLESTEROL BIOSYNTHESIS” (priority 1997, published 2002)
